Columns and labels:
[1] = CR dye photodegradation in ZnO-based sunscreen film (Neutrogena Sheer Zinc Face Mineral Sunscreen SPF 50); details: 1.5 wt. % added agent relative to sunscreen weight
Experimental: Therefore, the extent of photodegradation upon UV irradiation in a photoreactor, using the same setup and ZnO-based sunscreen formulation (Neutrogena Sheer Zinc Face™ Mineral Sunscreen SPF 50) as in Examples 7.1 and 7.2 above, except now using Congo Red (CR) rather than MB dye was investigated. For this investigation, a homogeneous composite mixture was prepared by mixing the ZnO-based (Neutrogena Sheer Zinc Face™ Mineral Sunscreen SPF 50) sunscreen, and CR dye in the similar way as described in Example 7.1 for MB, except now using 10^−3 M CR dye (0.6 mL) instead of 10^−3 M MB dye (0.6 mL). Similarly, a composite sunscreen mixture comprising UV-protecting agent was prepared with synthesized Ce2(CO3)3·6H2O (1.5 wt. % relative to sunscreen weight), following the procedure of Example 7.2. The investigation of CR dye photodegradation in sunscreen films, was also conducted in similar fashion as described in Examples 7.1 for the case of no added UV-protecting agent and 7.2 for the case of added Ce2(CO3)3·6H2O UV-protecting agent, except for the following changes. First, the CR sunscreen films were salmon colored on the same filter paper, and the duration of UV-irradiation in the photoreactor was 5 h instead of 4 h. Second, 2 mL of N,N-dimethylformamide was used for CR dye extraction, instead of 2 mL of ethanol as used for MB dye extraction. […]

[2] = tested on: RBL-2H3 rat-cell line; test: Toxicity of mammalian cells to cerium carbonate, microscopy imaging; assay type: cell-based; details: 10 microliter of 1 mg in 1 mL water dispersion, imaging 20 min after addition
Experimental: A RBL-2H3 rat-cell line was used from the Berkeley cell-culture facility. […] Prior to microscopy imaging, cells were stored under 5% CO2 in air atmosphere at 37° C. A 10 microliter aliquot of an aqueous dispersion comprising 1 mg of cerium carbonate Ce2(CO3)3·6H2O (micron sized) in 1 mL of deionized water was added to the RBL-2H3 cells in the Petri dish. Microscopy imaging of the cells was performed before and 20 min after addition of the cerium carbonate. […] This viability of the cells appears to be similar both before and after treatment with cerium carbonate Ce2(CO3)3·6H2O (micron sized).

[3] = MB dye photodegradation in octacrylene-based sunscreen film (Blue Lizard Kids Australian Sunscreen SPF 30+); details: 1.5 wt. % added agent
Experimental: Films on filter paper were fabricated and photoreactor experiments were conducted exactly the same way as described in Example 7.2, using MB dye, except UV irradiation in the photoreactor was conducted for a period of 4 h. These films contained either no UV-protecting agent, or 1.5 wt. % of Ce2(CO3)3·6H2O that was synthesized according to Example 3. The slurry formulation for film fabrication, photoexposure to UV light, and MB dye extraction in ethanol were performed similar to Example 7.2, except Blue Lizard® Kids Australian Sunscreen SPF 30+ was used.
A 30 nm blue-shift of the wavelength of the absorbance maximum was observed (from 654 nm initially to 624 nm after 4 h of UV irradiation in the photoreactor). The degree of photodegradation was calculated by UV-visible spectrophotometry, by assuming the same extinction coefficient at 654 nm before UV irradiation and 624 nm after 4 h of UV irradiation in the photoreactor. Data in FIG. 25A corresponds to 64% MB dye photodegradation.

[4] = CR dye photodegradation in TiO2-based sunscreen film (Neutrogena Broad Spectrum Mineral Sunscreen SPF 60+)
Experimental: Films on filter paper were fabricated and photoreactor experiments were conducted exactly the same way as described in Example 7.3, using CR dye, except UV irradiation in the photoreactor was conducted for a period of 4 h. These films contained either no UV-protecting agent, 3.0 wt. % of Ce2(CO3)3·6H2O that was synthesized according to Example 3, 3.0 wt. % of commercial Ce2(CO3)3·xH2O (Acros Organics), or 3.0 wt. % of ZnO (NANOBYK-3840). […] Upon adding 3 wt. % of Ce2(CO3)3·6H2O synthesized according to Example 3 to the sunscreen formulation, a decrease in the amount of CR dye photodegradation to 15±1% is observed. […] When cerium carbonate consisting of Ce2(CO3)3·xH2O from Acros Organics is instead used in place of Ce2(CO3)3·6H2O synthesized according to Example 3, photoprotection with 24±2% CR dye photodegradation is observed. The properties of Ce2(CO3)3·xH2O from Acros Organics have been ascribed in Example 4, and these aspects are borne out in conjunction with sunscreen-based formulations here as well. When instead of cerium carbonate ZnO (NANOBYK-3840) is used as a UV-protecting agent, less effect on CR dye photodegradation is observed. This is a similar outcome to observations with MB dye and ZnO-based sunscreen formulation in Example 7.2.
The amount of Ce2(CO3)3·6H2O synthesized according to Example 3 that was incorporated into the TiO2-based sunscreen was increased to 5.0 wt. %, and results are shown in FIGS. 23A-23B and are summarized in Table 4. […] There is a slight diminishing return for adding Ce2(CO3)3·6H2O both here and in Example 7.2, but the effect of increasing Ce2(CO3)3·6H2O on organic-molecule photoprotection is much more pronounced than in the case of ZnO.

O.O.O.O.O.O.O=C([O-])[O-].O=C([O-])[O-].O=C([O-])[O-].[Ce+3].[Ce+3] [Ce2(CO3)3·6H2O]
% of CR dye photodegradation after 5 h of UV irradiation in photoreactor [1]: 9±1% | % of CR dye photodegradation after 5 h of UV irradiation in photoreactor ([1]; listed as Ce2(CO3)3•6H2O synthesized according to Example 3): 9 ± 1% | toxicity to cells (cell shape, viability) [2]: generally non-toxic to the cells | MB dye degradation after 4 h of UV irradiation in photoreactor [3]: 45% | % of CR dye photodegradation after 4 h of UV irradiation in photoreactor ([4]; 3.0 wt. % added agent relative to sunscreen weight, listed as Ce2(CO3)3·6H2O synthesized according to Example 3): 15±1% | % of CR dye photodegradation after 4 h of UV irradiation in photoreactor ([4]; 3.0 wt. % added agent relative to sunscreen weight, listed as Ce2(CO3)3•6H2O synthesized according to Example 3): 15 ± 1% | % of CR dye photodegradation after 4 h of UV irradiation in photoreactor ([4]; 5.0 wt. % added agent relative to sunscreen weight): 10 ± 1%
